Source: PubChem BioAssay AID248 (DTP/NCI, 2004)
“And” between values parts separate entries of the source, which are not always exact repeats. Equal values may be shown once. Toxic doses and inconclusive results are not listed.

Tested on: L1210 leukemia ip in BDF1 mice, survival T/C
Test: NCI In Vivo Anticancer Drug Screen. Data for tumor model L1210 Leukemia (intraperitoneal) in B6D2F1 (BDF1) mice
Conditions: endpoint: mean survival time, higher = longer survival
How it was run: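 In this screen, tumor-bearing mice given compound are compared to those given vehicle, and their survival values are reported as a treated-to-control quotient.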

[1] = dose: 100.0 mg/kg/injection, schedule: Q04DX003 (ip), vehicle: Klucel (hydroxypropylcellulose) (HPC)
[2] = dose: 200.0 mg/kg/injection, schedule: Q04DX003 (ip), vehicle: Klucel (hydroxypropylcellulose) (HPC)
[3] = dose: 400.0 mg/kg/injection, schedule: Q04DX003 (ip), vehicle: Klucel (hydroxypropylcellulose) (HPC)
[4] = dose: 100.0 mg/kg/injection, schedule: Q01DX009 (ip), vehicle: saline
[5] = dose: 100.0 mg/kg/injection, schedule: Q04DX003 (ip), vehicle: saline
[6] = dose: 200.0 mg/kg/injection, schedule: Q01DX009 (ip), vehicle: saline
[7] = dose: 200.0 mg/kg/injection, schedule: Q04DX003 (ip), vehicle: saline
[8] = dose: 400.0 mg/kg/injection, schedule: Q01DX009 (ip), vehicle: saline
[9] = dose: 400.0 mg/kg/injection, schedule: Q04DX003 (ip), vehicle: saline
[10] = dose: 100.0 mg/kg/injection, schedule: Q01DX001 (ip), vehicle: saline
[11] = dose: 200.0 mg/kg/injection, schedule: Q01DX001 (ip), vehicle: saline
[12] = dose: 50.0 mg/kg/injection, schedule: Q01DX001 (ip), vehicle: carboxymethylcellulose (CMC)
[13] = dose: 100.0 mg/kg/injection, schedule: Q01DX001 (ip), vehicle: carboxymethylcellulose (CMC)
[14] = dose: 200.0 mg/kg/injection, schedule: Q01DX001 (ip), vehicle: carboxymethylcellulose (CMC)
[15] = dose: 100.0 mg/kg/injection, schedule: Q01DX009 (ip), vehicle: Klucel (hydroxypropylcellulose) (HPC)
[16] = dose: 200.0 mg/kg/injection, schedule: Q01DX009 (ip), vehicle: Klucel (hydroxypropylcellulose) (HPC)
[17] = dose: 400.0 mg/kg/injection, schedule: Q01DX009 (ip), vehicle: Klucel (hydroxypropylcellulose) (HPC)
[18] = dose: 400.0 mg/kg/injection, schedule: Q01DX001 (ip), vehicle: carboxymethylcellulose (CMC)

## CCCCCCCCCCCCCCCC(=O)Oc1ccc(C(=S)N2CCOCC2)cc1
[1]
  T/C: 103 % of control
[2]
  T/C: 99 % of control
[3]
  T/C: 99 % of control

## O=[N+]([O-])c1ccc(Nc2ccncc2)cc1
[4]
  T/C: 103 % of control
[5]
  T/C: 106 % of control
[6]
  T/C: 106 % of control
[7]
  T/C: 103 % of control
[8]
  T/C: 104 % of control
[9]
  T/C: 114 % of control

## CN(C)CCc1ccccc1OC1CCCC1
dose: 75.0 mg/kg/injection, schedule: Q01DX001 (ip), vehicle: other
  T/C: 101 % of control
dose: 150.0 mg/kg/injection, schedule: Q01DX001 (ip), vehicle: other
  T/C: 102 % of control
dose: 300.0 mg/kg/injection, schedule: Q01DX001 (ip), vehicle: other
  T/C: 101 % of control

## CN(C)Cc1cc(C(C)(C)C)ccc1O
[5]
  T/C: 95 % of control
[7]
  T/C: 91 % of control

## O=C(CS(=O)(=O)O)Nc1ccccc1 (tested in a mixture with another compound)
dose: 100.0 mg/kg/injection, schedule: Q01DX001 (ip), vehicle: saline with Tween-80
  T/C: 93 % of control
dose: 200.0 mg/kg/injection, schedule: Q01DX001 (ip), vehicle: saline with Tween-80
  T/C: 103 % of control
dose: 400.0 mg/kg/injection, schedule: Q01DX001 (ip), vehicle: saline with Tween-80
  T/C: 90 % of control

## CC(=O)Nc1ccn(C2OC(COC(C)=O)C(OC3OC4COC(c5ccccc5)OC4C(OC(C)=O)C3OC(C)=O)C(OC(C)=O)C2OC(C)=O)c(=O)n1 (stereo not given)
dose: 22.5 mg/kg/injection, schedule: Q01DX001 (ip), vehicle: carboxymethylcellulose (CMC)
  T/C: 97 % of control
dose: 45.0 mg/kg/injection, schedule: Q01DX001 (ip), vehicle: carboxymethylcellulose (CMC)
  T/C: 103 % of control
dose: 90.0 mg/kg/injection, schedule: Q01DX001 (ip), vehicle: carboxymethylcellulose (CMC)
  T/C: 92 % of control
dose: 180.0 mg/kg/injection, schedule: Q01DX001 (ip), vehicle: carboxymethylcellulose (CMC)
  T/C: 97 % of control

## S=C(S)N1CCOCC1
dose: 50.0 mg/kg/injection, schedule: Q01DX009 (ip), vehicle: saline sonified
  T/C: 104 % of control
[10]
  T/C: 105 % of control
dose: 100.0 mg/kg/injection, schedule: Q01DX009 (ip), vehicle: saline sonified
  T/C: 100 % of control
[4]
  T/C: 98 % of control
[5]
  T/C: 93 % of control
[11]
  T/C: 97 % of control
dose: 200.0 mg/kg/injection, schedule: Q01DX009 (ip), vehicle: saline sonified
  T/C: 94 % of control
[6]
  T/C: 106 % of control
[7]
  T/C: 97 % of control
[8]
  T/C: 96 % of control
[9]
  T/C: 95 % of control

## CC(=O)NC(Cc1ccccc1)C(=O)O (stereo not given)
dose: 50.0 mg/kg/injection, schedule: Q04DX003 (ip), vehicle: Klucel (hydroxypropylcellulose) (HPC)
  T/C: 94 % of control
[1]
  T/C: 103 % of control
[2]
  T/C: 100 % of control

## COc1cc(C=Nc2cccc(F)c2)ccc1N(CCCl)CCCl
dose: 2.5 mg/kg/injection, schedule: Q01DX009 (ip), vehicle: carboxymethylcellulose (CMC)
  T/C: 96 % of control
dose: 5.0 mg/kg/injection, schedule: Q01DX009 (ip), vehicle: carboxymethylcellulose (CMC)
  T/C: 104 % of control
dose: 10.0 mg/kg/injection, schedule: Q01DX009 (ip), vehicle: acetone
  T/C: 118 % of control
dose: 10.0 mg/kg/injection, schedule: Q01DX009 (ip), vehicle: carboxymethylcellulose (CMC)
  T/C: 108 % of control
dose: 45.0 mg/kg/injection, schedule: Q01DX001 (ip), vehicle: saline
  T/C: 110 % of control
[12]
  T/C: 101 % of control
dose: 67.0 mg/kg/injection, schedule: Q01DX001 (ip), vehicle: saline
  T/C: 115 % of control
[13]
  T/C: 98 % of control
[14]
  T/C: 103 % of control
[11]
  T/C: 152 % of control

## COC(=O)/C=C(\C(=O)OC)N(C)c1ccccc1
dose: 50.0 mg/kg/injection, schedule: Q01DX001 (ip), vehicle: other
  T/C: 106 % of control

## CCC(=O)OC1CC2C3CCC4=CC(=O)CCC4(C)C3CCC2(C)C1OC(=O)CC (stereo not given)
[15]
  T/C: 98 % of control
[1]
  T/C: 95 % of control
[16]
  T/C: 98 % of control
[2]
  T/C: 95 % of control
[17]
  T/C: 97 % of control
[3]
  T/C: 101 % of control

## O=CNC(NC=O)c1ccccc1[N+](=O)[O-]
[15]
  T/C: 101 % of control
[1]
  T/C: 104 % of control
[16]
  T/C: 98 % of control
[2]
  T/C: 98 % of control
[17]
  T/C: 97 % of control
[3]
  T/C: 100 % of control

## ClC(c1ccccc1)C(Cl)c1ccccc1 (stereo not given)
[12]
  T/C: 101 % of control
dose: 75.0 mg/kg/injection, schedule: Q04DX002 (ip), vehicle: Klucel (hydroxypropylcellulose) (HPC)
  T/C: 109 % of control
[13]
  T/C: 106 % of control
dose: 150.0 mg/kg/injection, schedule: Q04DX002 (ip), vehicle: Klucel (hydroxypropylcellulose) (HPC)
  T/C: 95 % of control
[14]
  T/C: 101 % of control
dose: 300.0 mg/kg/injection, schedule: Q04DX002 (ip), vehicle: Klucel (hydroxypropylcellulose) (HPC)
  T/C: 92 % of control
[18]
  T/C: 101 % of control

## COc1cc(/C=N/NC(=O)c2ccccc2NC(=O)c2ccccc2)ccc1O
[15]
  T/C: 97 % of control
[16]
  T/C: 95 % of control
[17]
  T/C: 100 % of control

## Cn1cc(C2Cc3ccccc3NC3=C2C(=O)CC(C)(C)C3)c2ccccc21 (stereo not given)
dose: 100.0 mg/kg/injection, schedule: Q01DX001 (ip), vehicle: other
  T/C: 103 % of control
dose: 200.0 mg/kg/injection, schedule: Q01DX001 (ip), vehicle: other
  T/C: 92 % of control
dose: 400.0 mg/kg/injection, schedule: Q01DX001 (ip), vehicle: other
  T/C: 86 % of control

## CC(=O)C1(C)C(=O)N(c2ccc(C)cc2)C(=O)N1c1ccc(C)cc1 (stereo not given)
[10]
  T/C: 104 % of control
[11]
  T/C: 102 % of control
dose: 400.0 mg/kg/injection, schedule: Q01DX001 (ip), vehicle: saline
  T/C: 102 % of control

## CC(C)=CCCC(C)CCOc1cccc(C)c1 (stereo not given)
dose: 100.0 mg/kg/injection, schedule: Q04DX002 (ip), vehicle: saline with Tween-80
  T/C: 105 % of control
dose: 200.0 mg/kg/injection, schedule: Q04DX002 (ip), vehicle: saline with Tween-80
  T/C: 99 % of control
dose: 400.0 mg/kg/injection, schedule: Q04DX002 (ip), vehicle: saline with Tween-80
  T/C: 89 % of control

## COc1ccc(N=NNc2ccc(OC)cc2)cc1
dose: 6.25 mg/kg/injection, schedule: Q01DX009 (ip), vehicle: saline with Tween-80
  T/C: 101 % of control
dose: 12.5 mg/kg/injection, schedule: Q01DX009 (ip), vehicle: saline with Tween-80
  T/C: 102 % of control
dose: 12.5 mg/kg/injection, schedule: Q04DX003 (ip), vehicle: saline with Tween-80
  T/C: 97 % of control
dose: 25.0 mg/kg/injection, schedule: Q01DX009 (ip), vehicle: saline with Tween-80
  T/C: 98 % of control and 90 % of control
dose: 25.0 mg/kg/injection, schedule: Q04DX003 (ip), vehicle: saline with Tween-80
  T/C: 95 % of control
dose: 50.0 mg/kg/injection, schedule: Q04DX003 (ip), vehicle: saline with Tween-80
  T/C: 97 % of control
dose: 100.0 mg/kg/injection, schedule: Q04DX003 (ip), vehicle: saline with Tween-80
  T/C: 98 % of control

## O=C1C=CC(=O)N1c1ccnc(N2C(=O)C=CC2=O)c1
[13]
  T/C: 86 % of control
[14]
  T/C: 97 % of control
[18]
  T/C: 105 % of control

## CC[N+](CC)(CC)CCNC(C)=O
[4]
  T/C: 111 % of control
[6]
  T/C: 100 % of control
[8]
  T/C: 105 % of control

## c1ccc(C2C(c3ccccc3)N2CCCN2CCOCC2)cc1 (stereo not given)
dose: 50.0 mg/kg/injection, schedule: Q01DX009 (ip), vehicle: Klucel (hydroxypropylcellulose) (HPC)
  T/C: 106 % of control
[15]
  T/C: 103 % of control
[1]
  T/C: 88 % of control
[16]
  T/C: 107 % of control
[2]
  T/C: 93 % of control

## Cc1c(CC(=O)O)c(=O)n(-c2ccccc2)n1C
dose: 75.0 mg/kg/injection, schedule: Q04DX003 (ip), vehicle: Klucel (hydroxypropylcellulose) (HPC)
  T/C: 105 % of control
dose: 150.0 mg/kg/injection, schedule: Q04DX003 (ip), vehicle: Klucel (hydroxypropylcellulose) (HPC)
  T/C: 101 % of control
dose: 300.0 mg/kg/injection, schedule: Q04DX003 (ip), vehicle: Klucel (hydroxypropylcellulose) (HPC)
  T/C: 104 % of control

## O=C(O)c1[nH]c(=O)[nH]c(=O)c1CN1CCCCC1
dose: 100.0 mg/kg/injection, schedule: Q01DX Z (ip), vehicle: methylcellulose (MC)
  T/C: 93 % of control
dose: 200.0 mg/kg/injection, schedule: Q01DX Z (ip), vehicle: methylcellulose (MC)
  T/C: 93 % of control
